# Measured values: patent US8202862B2, “Substituted piperidines” (Bayer Intellectual Property GmbH, priority 2009, dated 2012)
# Legend:
# [1] = target: T1, human protease activated receptor 1 (PAR1) (Homo sapiens, UniProt P25116); experiment: Cellular functional in vitro test (PAR1 test cell, aequorin luminescence); assay type: cell-based; details: HEK293-derived PAR1 test cell; PAR1 agonist at EC50; calcium/aequorin luminescence
# T1 construct: the cell stably expresses the endogenous human PAR1 receptor; endogenous in cells; host or cells: recombinant HEK293-derived cell line; only the mitochondrial aequorin is recombinant
# T1 sequence (P25116 22-425): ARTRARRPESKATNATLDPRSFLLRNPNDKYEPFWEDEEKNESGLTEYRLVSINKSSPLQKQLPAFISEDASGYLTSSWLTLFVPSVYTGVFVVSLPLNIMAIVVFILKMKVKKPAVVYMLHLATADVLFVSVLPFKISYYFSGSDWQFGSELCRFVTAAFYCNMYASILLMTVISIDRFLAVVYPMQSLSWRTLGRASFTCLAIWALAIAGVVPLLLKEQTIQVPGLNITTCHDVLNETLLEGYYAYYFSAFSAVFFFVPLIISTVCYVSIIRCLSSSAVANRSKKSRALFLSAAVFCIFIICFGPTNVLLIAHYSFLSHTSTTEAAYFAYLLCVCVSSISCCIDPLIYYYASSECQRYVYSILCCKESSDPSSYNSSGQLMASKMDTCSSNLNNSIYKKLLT
# Excerpt: Cellular Functional in vitro Test
# A recombinant cell line is used to identify […] of the human protease activated receptor 1 (PAR1) and to quantify the activity of the substances described herein. The cell is originally derived from a human embryonal kidney cell (HEK293; ATCC: American Type Culture Collection, Manassas, Va. 20108, U.S.A.). The test cell line constitutively expresses a modified form of the calcium-sensitive photoprotein aequorin which, after reconstitution with the cofactor coelenterazine, emits light when the free calcium concentration in the inner mitochondrial compartment is increased (Rizzuto R, Simpson A W, Brini M, Pozzan T.; Nature 1992, 358, 325-327). Additionally, the cell stably expresses the endogenous human PAR1 receptor and the endogenous purinergic receptor P2Y2. The resulting PAR1 test cell responds to stimulation of the endogenous PAR1 or P2Y2 receptor with an intracellular release of calcium ions, which can be quantified through the resulting aequorin luminescence with a suitable luminometer (Milligan G, Marshall F, Rees S, Trends in Pharmacological Sciences 1996, 17, 235-237).
# For the testing of the substance specificity, the effect thereof after activation of the endogenous PAR1 receptor is compared with the effect after activation of the endogenous purinergic P2Y2 receptor which utilizes the same intracellular signal path.
# Test procedure: The cells are plated out two days (48 hours) before the test in culture medium (DMEM F12, supplemented with 10% FCS, 2 mM glutamine, 20 mM HEPES, 1.4 mM pyruvate, 0.1 mg/ml gentamycin, 0.15% sodium bicarbonate; BioWhittaker Cat. # BE04-687Q; B-4800 Verviers, Belgium) in 384-well microtitre plates and kept in a cell incubator (96% atmospheric humidity, 5% v/v CO2, 37° C.). On the day of the test, the culture medium is replaced by a Tyrode's solution (in mM: 140 sodium chloride, 5 potassium chloride, 1 magnesium chloride, 2 calcium chloride, 20 glucose, 20 HEPES), which additionally contains the cofactor coelenterazine (25 μM) and glutathione (4 mM), and the microtitre plate is then incubated for a further 3-4 hours. The test substances are then pipetted onto the microtitre plate, and 5 minutes after the transfer of the test substances into the wells of the microtitre plate the plate is transferred into the luminometer, a PAR1 agonist concentration which corresponds to EC50 is added and the resulting light signal is immediately measured in the luminometer. To distinguish an antagonist substance action from a toxic action, the endogenous purinergic receptor is immediately subsequently activated with agonist (ATP, final concentration 10 μM) and the resulting light signal is measured.
# platelet-rich plasma = experiment: Platelet aggregation in plasma (triggered by thrombin receptor agonist TRAP6, SFLLRN; turbidimetry according to Born); assay type: cell-based; details: 10 min, human platelet-rich plasma, 10 min at 37° C.
# Procedure: 1.c) Platelet Aggregation in Plasma
# Platelet aggregation is determined using blood from healthy volunteers of both genders, who had not received any thrombocyte aggregation-influencing medication for the last ten days. The blood is taken up into monovettes (Sarstedt, Nümbrecht, Germany) which contain, as anticoagulant, sodium citrate 3.8% (1 part citrate+9 parts blood). To obtain platelet-rich plasma, the citrated whole blood is centrifuged at 140 g for 20 min.
# For the aggregation measurements, aliquots of the platelet-rich plasma with increasing concentrations of test substance are incubated at 37° C. for 10 min. Subsequently, aggregation is triggered by addition of a thrombin receptor agonist (TRAP6, SFLLRN) in an aggregometer and determined at 37° C. by means of the turbidimetry method according to Born (Born, G. V. R., Cross M. J., The Aggregation of Blood Platelets; J. Physiol. 1963, 168, 178-195). The SFLLRN concentration leading to maximum aggregation is, if appropriate, determined individually for each donor.
# To calculate the inhibitory effect, the maximum increase in light transmission (amplitude of the aggregation curve in %) is determined within 5 minutes after addition of the agonist in the presence and absence of test substance, and the inhibition is calculated. The inhibition curves are used to calculate the concentration which inhibits aggregation by 50%.
Structure (SMILES),IC50 [1] [nM],IC50 (platelet-rich plasma) [nM]
"COCCc1noc(C2CC(c3ccc(OC(F)(F)F)cc3)CN(C(=O)N3CC[S+]([O-])CC3)C2)n1 (racemic) [Example 1, {3-[3-(2-Methoxyethyl)-1,2,4-oxadiazol-5-yl]-5-[4-(trifluoromethoxy)phenyl]piperidin-1-yl}-(oxidothiomorpholin-4-yl)methanone]",43,
"O=C(N1CC[S+]([O-])CC1)N1CC(c2ccc(C(F)(F)F)cc2)CC(c2nc(C3CC3)no2)C1 (racemic) [Example 20, {3-(3-Cyclopropyl-1,2,4-oxadiazol-5-yl)-5-[4-(trifluoromethyl)phenyl]piperidin-1-yl}(1-oxidothio-morpholin-4-yl)methanone]",23,
"COC1(c2noc(C3CC(c4ccc(CC(F)(F)F)cc4)CN(C(=O)N4CCS(=O)(=O)CC4)C3)n2)CC1 (racemic) [Example 61, (1,1-Dioxidothiomorpholin-4-yl){3-[3-(1-methoxycyclopropyl)-1,2,4-oxadiazol-5-yl]-5-[4-(2,2,2-trifluoroethyl)phenyl]piperidin-1-yl}methanone]",15.7,
"COCCc1noc(C2CC(c3ccc(OC(F)(F)F)cc3)CN(C(=O)N3CCS(=O)(=O)CC3)C2)n1 (single isomer, unassigned) [Example 8, (1,1-Dioxidothiomorpholin-4-yl){3-[3-(2-methoxyethyl)-1,2,4-oxadiazol-5-yl]-5-[4-(trifluoromethoxy)phenyl]piperidin-1-yl}methanone]",33,0.29
"O=C(N1CCS(=O)(=O)CC1)N1CC(c2ccc(OC(F)(F)F)cc2)CC(c2nc(C3CC3)no2)C1 (single isomer, unassigned) [Example 10, {3-(3-Cyclopropyl-1,2,4-oxadiazol-5-yl)-5-[4-(trifluoromethoxy)phenyl]piperidin-1-yl}(1,1-dioxidothiomorpholin-4-yl)methanone]",8,0.49
"CCc1ccc(C2CC(c3nc(C4CC4)no3)CN(C(=O)N3CCS(=O)(=O)CC3)C2)cc1 (single isomer, unassigned) [Example 15, [3-(3-Cyclopropyl-1,2,4-oxadiazol-5-yl)-5-(4-ethylphenyl)piperidin-1-yl](1,1-dioxidothiomorpholin-4-yl)methanone]",5.1,
"CCOCCc1noc(C2CC(c3ccc(C(F)(F)F)cc3)CN(C(=O)N3CCS(=O)(=O)CC3)C2)n1 (single isomer, unassigned) [Example 31, (1,1-Dioxidothiomorpholin-4-yl){3-[3-(2-ethoxyethyl)-1,2,4-oxadiazol-5-yl]-5-[4-(trifluoromethyl)phenyl]piperidin-1-yl}methanone]",32,
"CC(F)(F)c1ccc(C2CC(c3nc(C4CC4)no3)CN(C(=O)N3CC[S+]([O-])CC3)C2)cc1 (single isomer, unassigned) [Example 52, {3-(3-Cyclopropyl-1,2,4-oxadiazol-5-yl)-5-[4-(1,1-difluoroethyl)phenyl]piperidin-1-yl}-(1-oxido-thiomorpholin-4-yl)methanone]",4.7,0.58
"CC(F)(F)c1ccc(C2CC(c3nc(C4CC4)no3)CN(C(=O)N3CCS(=O)(=O)CC3)C2)cc1 (single isomer, unassigned) [Example 54, {3-(3-Cyclopropyl-1,2,4-oxadiazol-5-yl)-5-[4-(1,1-difluoroethyl)phenyl]piperidin-1-yl}-(1,1-dioxidothiomorpholin-4-yl)methanone]",4.3,
"CCc1ccc(C2CC(c3nc(CCOC)no3)CN(C(=O)N3CCS(=O)(=O)CC3)C2)cc1 (stereo not shown) [Example 13, (1,1-Dioxidothiomorpholin-4-yl){3-(4-ethylphenyl)-5-[3-(2-methoxyethyl)-1,2,4-oxadiazol-5-yl]-piperidin-1-yl}methanone]",,0.17
